Among the data in patent publication US20260138990A1, “TRICYCLIC FUSED IMIDAZOLE COMPOUNDS AS CD38 MODULATORS AND USES THEREOF” (AEOVIAN PHARMACEUTICALS, INC., priority 2023, published 2026) are IC50 values, retold here.

The IC50 is the concentration that gives 50% inhibition.

One test concerns the target T1, mouse CD38 (Mus musculus, UniProt P56528).
T1 construct: purchased Bio-Techne GmbH 4947-AC
T1 sequence (P56528 1-304): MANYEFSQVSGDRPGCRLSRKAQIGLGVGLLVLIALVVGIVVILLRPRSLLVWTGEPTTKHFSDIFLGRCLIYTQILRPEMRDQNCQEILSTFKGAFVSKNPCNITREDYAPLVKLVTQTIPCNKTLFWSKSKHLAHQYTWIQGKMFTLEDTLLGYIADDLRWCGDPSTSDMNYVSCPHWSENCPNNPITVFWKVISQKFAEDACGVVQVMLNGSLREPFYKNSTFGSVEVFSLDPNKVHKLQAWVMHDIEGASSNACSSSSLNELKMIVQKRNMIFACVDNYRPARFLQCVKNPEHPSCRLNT
In words: NAD+ cyclase activity assay with mouse recombinant CD38 protein (ε-NAD fluorescence). In kind it is biochemical. The following applies: 0.6 nM mouse CD38, substrate ε-NAD, 30 min preincubation, fluorescence 300/410 nm. The procedure: (§1) Example 4: NAD^+ Cydase Activity Assay with Human or Mouse Recombinant CD38 Protein
(§2) The following assay was used to determine the ability of compounds of the invention to inhibit the hydrolysis of NAD^+ by the human or mouse enzyme, CD38.
(§3) Reaction buffer: 40 mM HEPES/NaOH pH 7.5, 250 mM sucrose, 0.01% Tween
(§4) Final concentrations: 0.6 nM mouse CD38 (4947-AC, Bio-Techne GmbH) 1.9 nM human CD38 (AVI2404, Bio-Techne GmbH)
(§5) Substrate: […] Nicotinamide 1,N6-ethenoadenine dinucleotide (&-NAD)
(§6) Read-out: Fluorescence intensity (extinction 300 nm/emission 410 nm)
(§7) Required reaction buffer, required CD38 concentration in reaction buffer and required e-NAD concentration in reaction buffer were prepared. Thereafter, 8 μL of CD38 in reaction buffer was added to High Control and compound concentration wells in 384 well plate (Corning #4514, 384 well, nonbinding surface, low volume, round bottom) and 8 μL of reaction buffer to Low Control. Compound dilutions were transferred via pintool technology that transfers 42.5 nL compound dilutions (12-point dose-response with factor three dilutions in 100% DMSO) well-to-well. Plate was subsequently shaken for 15 s at 1450 rpm and sealed for incubation for 30 min at room temperature. Thereafter, 2 μL of e-NAD in reaction buffer were added with Integra Voyager. After shaking for 15 s at 1450 rpm, plate was sealed, and assay signal were measured continuously with PHERAstar® fluorescence intensity module (extinction 300 nm/emission 410 nm).
(§8) Dose-response curves were constructed using twelve-pointfactor three dilutions in triplicates per plate. High control (full enzyme activity) was set to assay signal of CD38 and e-NAD in presence of vehicle (DMSO) and Low control (full enzyme inhibition) was set to assay signal of e-NAD and vehicle (DMSO) in absence of CD38. For data analysis, fluorescent signal of traces corresponding to each compound concentration and High and Low control were monitored over time. Each run, High Control (full enzyme activity) was fitted to Linear equation via GraphPad Prism to determine CD38 activity from the slope and determine the time interval of linear phase of reaction to account for minor fluctuations. Thereafter, slopes of all compound concentrations were determined via fitting to same linear equation (GraphPad Prism) over the same time interval as determined for High control. […] Unless otherwise stated, fitting of curves were fixed to 100%-inhibition and unlocked for 0%-inhibition.

The target in a further test is T2, human CD38 (Homo sapiens, UniProt P28907).
T2 construct: purchased Bio-Techne GmbH AVI2404
T2 sequence (P28907 1-300): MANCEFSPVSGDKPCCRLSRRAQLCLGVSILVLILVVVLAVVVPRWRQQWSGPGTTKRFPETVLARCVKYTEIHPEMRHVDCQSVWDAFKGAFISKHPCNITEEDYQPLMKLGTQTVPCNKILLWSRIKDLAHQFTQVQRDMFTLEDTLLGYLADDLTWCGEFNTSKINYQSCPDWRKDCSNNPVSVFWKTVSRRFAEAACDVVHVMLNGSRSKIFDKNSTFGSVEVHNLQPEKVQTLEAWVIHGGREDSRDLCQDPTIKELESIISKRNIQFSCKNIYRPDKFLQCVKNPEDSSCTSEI
Nature of the test: NAD+ cyclase activity assay with human recombinant CD38 protein (ε-NAD fluorescence). It is filed as biochemical. The following applies: 1.9 nM human CD38, substrate ε-NAD, 30 min preincubation, fluorescence 300/410 nm. The procedure:
as §1, §2, §3, §4, §5, §6, §7, §8

For the molecule `CNc1nc2ccc(C(=O)N[C@@H]3CCCOC3)cc2n2cncc12` [Compound 28A, (R)-4-(Methylamino)-N-(tetrahydro-2H-pyran-3-yl)imidazo[1,5-a]quinoxaline-8-carboxamide], the half-inhibitory concentration (IC50) at mouse CD38 is 1 to 10 nM; at human CD38, less than 30 nM.
As to `COCCS(=O)(=O)N[C@H]1CC[C@H](NC(=O)c2ccc3c(c2)-c2cncn2CCO3)CC1` [Compound 29A, N-((1r,4r)-4-((2-Methoxyethyl)sulfonamido)cyclohexyl)-5,6-dihydrobenzo[f]imidazo[1,5-d][1,4]oxazepine-10-carboxamide], the IC50 was 1 to 10 nM at mouse CD38 and less than 30 nM at human CD38.
For `O=C(Nc1ccc2c(n1)OCCO2)c1ccc2c(c1)-c1cncn1CCO2` [Compound 30A, N-(2,3-Dihydro-[1,4]dioxino[2,3-b]pyridin-6-yl)-5,6-dihydrobenzo[f]imidazo[1,5-d][1,4]oxazepine-10-carboxamide], the IC50 on mouse CD38 is 1 to 10 nM; on human CD38 it was less than 30 nM.
The corresponding values for `O=C(Nc1cnc2c(c1)OCCO2)c1ccc2c(c1)-c1cncn1CCO2` [Compound 31A, N-(2,3-Dihydro-[1,4]dioxino[2,3-b]pyridin-7-yl)-5,6-dihydrobenzo[f]imidazo[1,5-d][1,4]oxazepine-10-carboxamide] are 1 to 10 nM and less than 30 nM.
As for `O=C(Nc1ccc2c(c1)OCC2)c1ccc2c(c1)-c1cncn1CCO2` [Compound 32A, N-(2,3-Dihydrobenzofuran-6-yl)-5,6-dihydrobenzo[f]imidazo[1,5-d][1,4]oxazepine-10-carboxamide], the IC50 is 1 to 10 nM on mouse CD38 and less than 30 nM at human CD38.
In the case of `O=C(Nc1ccc2c(c1)COC2)c1ccc2c(c1)-c1cncn1CCO2` [Compound 33A, N-(1,3-Dihydroisobenzofuran-5-yl)-5,6-dihydrobenzo[f]imidazo[1,5-d][1,4]oxazepine-10-carboxamide], the IC50 on mouse CD38 was 1 to 10 nM; at human CD38, less than 30 nM.
Consider `O=C(Nc1ccc2nc[nH]c2c1)c1ccc2c(c1)-c1cncn1CCO2` [Compound 34A, N-(1H-Benzo [d]imidazol-6-yl)-5,6-dihydrobenzo[f]imidazo[1,5-d][1,4]oxazepine-10-carboxamide], for which the IC50 on mouse CD38 is 1 to 10 nM; at human CD38, less than 30 nM.
Regarding `CN(C)c1nc2ccc(C(=O)N[C@@H]3CCCOC3)cc2n2cncc12` [Compound 35A, (R)-4-(Dimethylamino)-N-(tetrahydro-2H-pyran-3-yl)imidazo[1,5-a]quinoxaline-8-carboxamide], the results for the IC50 on mouse CD38 and at human CD38 were greater than 100 nM and greater than 1000 nM, respectively.
The corresponding values for `Cn1ccc(NC(=O)c2ccc3c(c2)-c2cncn2CCO3)cc1=O` [Compound 36A, N-(1-Methyl-2-oxo-1,2-dihydropyridin-4-yl)-5,6-dihydrobenzo[f]imidazo[1,5-d][1,4]oxazepine-10-carboxamide] are less than 1 nM and less than 30 nM.
For `CCCS(=O)(=O)N[C@H]1CC[C@H](NC(=O)c2ccc3c(c2)-c2cncn2CCO3)CC1` [Compound 37A, N-((1r,4r)-4-(Propylsulfonamido)cyclohexyl)-5,6-dihydrobenzo[f]imidazo[1,5-d][1,4]oxazepine-10-carboxamide] the same measures were 1 to 10 nM and less than 30 nM.
Take `CC1(C)Cn2cncc2-c2cc(C(=O)N[C@@H]3CCCOC3)ccc2O1` [Compound 38A, (R)-6,6-Dimethyl-N-(tetrahydro-2H-pyran-3-yl)-5,6-dihydrobenzo[f]imidazo[1,5-d][1,4]oxazepine-10-carboxamide]: the results for the IC50 on mouse CD38 and on human CD38 were 10 to 100 nM and greater than 1000 nM, respectively.
On to `O=C(Nc1ccc2ncoc2c1)c1ccc2c(c1)-c1cncn1CCO2` [Compound 39A, N-(Benzo[d]oxazol-6-yl)-5,6-dihydrobenzo[f]imidazo[1,5-d][1,4]oxazepine-10-carboxamide], for which the IC50 on mouse CD38 was 1 to 10 nM; on human CD38, less than 30 nM.
Consider `O=C(Nc1cnc2scnc2c1)c1ccc2c(c1)-c1cncn1CCO2` [Compound 40A, N-(Thiazolo[5,4-b]pyridin-6-yl)-5,6-dihydrobenzo[f]imidazo[1,5-d][1,4]oxazepine-10-carboxamide], for which the half-maximal inhibitory concentration (IC50) on mouse CD38 was 1 to 10 nM; at human CD38 it was less than 30 nM.
As to `O=C(Nc1ccc2ncsc2c1)c1ccc2c(c1)-c1cncn1CCO2` [Compound 41A, N-(Benzo[d]thiazol-6-yl)-5,6-dihydrobenzo[f]imidazo[1,5-d][1,4]oxazepine-10-carboxamide], the half-inhibitory concentration (IC50) at mouse CD38 was 1 to 10 nM; at human CD38 it was less than 30 nM.
As to `COCCO[C@H]1CC[C@H](NC(=O)c2cc(Br)c3c(c2)-c2cncn2CCO3)CC1` [Compound 46A, 8-Bromo-N-((1r,4r)-4-(2-methoxyethoxy)cyclohexyl)-5,6-dihydrobenzo[f]imidazo[1,5-d][1,4]oxazepine-10-carboxamide], the figures for the IC50 at mouse CD38 and on human CD38 were less than 1 nM and less than 30 nM, respectively.
For `COCCNc1nc2cc(NC(=O)c3ccc4c(c3)-c3cncn3CCO4)ccc2s1` [Compound 48A, N-(2-((2-Methoxyethyl)amino)benzo[d]thiazol-5-yl)-5,6-dihydrobenzo[f]imidazo[1,5-d][1,4]oxazepine-10-carboxamide], the IC50 at mouse CD38 is 1 to 10 nM; at human CD38, less than 30 nM.
For `CN(C)c1nc2cc(NC(=O)c3ccc4c(c3)-c3cncn3CCO4)ccc2s1` [Compound 49A, N-(2-(Dimethylamino)benzo[d]thiazol-5-yl)-5,6-dihydrobenzo[f]imidazo[1,5-d][1,4]oxazepine-10-carboxamide] the same measures were 10 to 100 nM and less than 30 nM.
For `COCCO[C@H]1CC[C@H](NC(=O)c2cc3c(c(C4CC4)c2)OCCn2cncc2-3)CC1` [Compound 50A, 8-Cyclopropyl-N-((1r,4r)-4-(2-methoxyethoxy)cyclohexyl)-5,6-dihydrobenzo[f]imidazo[1,5-d][1,4]oxazepine-10-carboxamide] the same measures were 1 to 10 nM and 30 to 100 nM.
The corresponding values for `CC1(C)COc2ccc(C(=O)N[C@@H]3CCCOC3)cc2-c2cncn21` [Compound 51A, (R)-5,5-Dimethyl-N-(tetrahydro-2H-pyran-3-yl)-5,6-dihydrobenzo[f]imidazo[1,5-d][1,4]oxazepine-10-carboxamide] are greater than 100 nM and greater than 1000 nM.
With `O=C(N[C@H]1CC[C@H](C(F)(F)F)CC1)c1ccc2c(c1)-c1cncn1CCO2` [Compound 52A, N-((1r,4r)-4-(Trifluoromethyl)cyclohexyl)-5,6-dihydrobenzo[f]imidazo[1,5-d][1,4]oxazepine-10-carboxamide], the IC50 at mouse CD38 was 1 to 10 nM; on human CD38 it was less than 30 nM.
Consider `COCCO[C@H]1CC[C@H](NC(=O)c2cc(C)c3c(c2)-c2cncn2CCO3)CC1` [Compound 53A, N-((1r,4r)-4-(2-Methoxyethoxy)cyclohexyl)-8-methyl-5,6-dihydrobenzo[f]imidazo[1,5-d][1,4]oxazepine-10-carboxamide], for which the IC50 at mouse CD38 was less than 1 nM; at human CD38, less than 30 nM.
On to `COCCO[C@H]1CC[C@H](NC(=O)c2cc(OC)c3c(c2)-c2cncn2CCO3)CC1` [Compound 54A, 8-Methoxy-N-((1r,4r)-4-(2-methoxyethoxy)cyclohexyl)-5,6-dihydrobenzo[f]imidazo[1,5-d][1,4]oxazepine-10-carboxamide], for which the 50% inhibitory concentration (IC50) on mouse CD38 is 1 to 10 nM; on human CD38, less than 30 nM.
